# Data taken from patent publication US20250034216A1, “STEREOSELECTIVE COVALENT LIGANDS FOR ONCOGENIC AND IMMUNOLOGICAL PROTEINS” (The Scripps Research Institute, priority 2021, published 2025).
# What was measured:
# Assay in all cases: IA-DTB cysteine engagement
# Type in all cases: binding
# Conditions in all cases: 22Rv1 cells, 20 μM probe, 1 h, relative to DMSO
# MRPS30_C204 = target: T1, MRPS30_C204 (Homo sapiens, UniProt Q9NP92)
# T1 construct: endogenous in cells; host or cells: 22Rv1
# Method in brief: (§1)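 Cells were treated in situ with electrophilic probes, then lysed, and the lysates (2 mg/mL protein) were labeled with IA-DTB for 1 h at ambient temperature. After reduction, alkylation and trypsin digestion, labeled peptides were streptavidin-enriched, TMT-labeled and fractionated. Engagement ratios are probe vs DMSO reporter intensities, averaged across replicates.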
# GNPAT_C122 = target: T2, GNPAT_C122 (Homo sapiens, UniProt O15228)
# T2 construct: endogenous in cells; host or cells: 22Rv1
# T2 sequence (O15228 1-680): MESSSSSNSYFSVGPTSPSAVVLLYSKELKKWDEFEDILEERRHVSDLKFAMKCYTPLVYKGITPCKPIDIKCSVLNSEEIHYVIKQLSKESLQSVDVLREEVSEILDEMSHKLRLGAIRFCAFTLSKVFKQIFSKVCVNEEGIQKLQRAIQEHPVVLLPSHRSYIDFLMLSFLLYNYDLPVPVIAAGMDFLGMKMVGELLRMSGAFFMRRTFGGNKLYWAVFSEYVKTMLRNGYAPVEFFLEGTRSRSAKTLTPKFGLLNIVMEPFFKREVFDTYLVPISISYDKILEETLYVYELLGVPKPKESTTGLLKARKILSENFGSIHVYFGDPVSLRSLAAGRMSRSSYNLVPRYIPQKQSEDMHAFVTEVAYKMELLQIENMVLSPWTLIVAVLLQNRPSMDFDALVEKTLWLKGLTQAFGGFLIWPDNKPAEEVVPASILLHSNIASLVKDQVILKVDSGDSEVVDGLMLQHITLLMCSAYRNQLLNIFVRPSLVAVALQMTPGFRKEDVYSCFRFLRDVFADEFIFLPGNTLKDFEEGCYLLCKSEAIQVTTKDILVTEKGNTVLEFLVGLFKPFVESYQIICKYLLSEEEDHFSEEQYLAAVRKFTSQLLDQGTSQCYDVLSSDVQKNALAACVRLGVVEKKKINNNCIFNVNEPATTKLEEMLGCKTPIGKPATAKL
# Method in brief: as §1
# FXYD3_C63 = target: T3, FXYD3_C63 (Homo sapiens, UniProt Q14802)
# T3 construct: endogenous in cells; host or cells: 22Rv1
# T3 sequence (Q14802 21-87): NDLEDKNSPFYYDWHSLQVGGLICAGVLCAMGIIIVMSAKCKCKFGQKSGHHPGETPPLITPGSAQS
# Method in brief: as §1
# SLC25A16_C311 = target: T4, SLC25A16_C311 (Homo sapiens, UniProt P16260)
# T4 construct: endogenous in cells; host or cells: 22Rv1
# T4 sequence (P16260 1-332): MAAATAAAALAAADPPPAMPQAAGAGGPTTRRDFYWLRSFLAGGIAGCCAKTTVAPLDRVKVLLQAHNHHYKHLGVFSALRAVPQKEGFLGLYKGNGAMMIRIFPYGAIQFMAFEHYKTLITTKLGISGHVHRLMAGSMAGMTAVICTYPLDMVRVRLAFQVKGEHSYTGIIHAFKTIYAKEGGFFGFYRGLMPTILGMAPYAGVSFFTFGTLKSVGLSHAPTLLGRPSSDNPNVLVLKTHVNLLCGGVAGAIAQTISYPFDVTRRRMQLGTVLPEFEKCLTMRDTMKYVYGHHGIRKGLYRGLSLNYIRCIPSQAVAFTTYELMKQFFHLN
# Method in brief: as §1
Compound,% engagement MRPS30_C204 (MRPS30_C204) [%],% engagement GNPAT_C122 (GNPAT_C122) [%],% engagement FXYD3_C63 (FXYD3_C63) [%],% engagement SLC25A16_C311 (SLC25A16_C311) [%]
"C=CC(=O)N1C[C@@H](c2ccc(Br)cc2)[C@H]1C(=O)Nc1cccc2cccnc12 [MY-1A, (2S,3R)-1-acryloyl-3-(4-bromophenyl)-N-(quinolin-8-yl)azetidine-2-carboxamide]",74.5,70.5,48.5,79
"C=CC(=O)N1C[C@H](c2ccc(Br)cc2)[C@@H]1C(=O)Nc1cccc2cccnc12 [MY-1B, (2R,3S)-1-acryloyl-3-(4-bromophenyl)-N-(quinolin-8-yl)azetidine-2-carboxamide]",−37,74.5,52.5,37.5
"C=CC(=O)N1C[C@H](c2ccc(Br)cc2)[C@H]1C(=O)Nc1cccc2cccnc12 [MY-3A, (2S,3S)-1-acryloyl-3-(4-bromophenyl)-N-(quinolin-8-yl)azetidine-2-carboxamide]",1,35.5,43.5,32
"C=CC(=O)N1C[C@H](c2ccc(Br)cc2)[C@H]1C(=O)Nc1cccc2cccnc12 [MY-3B, (2S,3S)-1-acryloyl-3-(4-bromophenyl)-N-(quinolin-8-yl)azetidine-2-carboxamide]",−41.5,51.5,71,38.5
